IC50 data for 26 molecules are collected here from patent US12018021B2 (UCB Biopharma SRL, priority 2018, dated 2024).

Sequence of IgE-Tb / FcεRIα-Y131A-AF488 (P01854 1-427 limits assumed, stated change not applied): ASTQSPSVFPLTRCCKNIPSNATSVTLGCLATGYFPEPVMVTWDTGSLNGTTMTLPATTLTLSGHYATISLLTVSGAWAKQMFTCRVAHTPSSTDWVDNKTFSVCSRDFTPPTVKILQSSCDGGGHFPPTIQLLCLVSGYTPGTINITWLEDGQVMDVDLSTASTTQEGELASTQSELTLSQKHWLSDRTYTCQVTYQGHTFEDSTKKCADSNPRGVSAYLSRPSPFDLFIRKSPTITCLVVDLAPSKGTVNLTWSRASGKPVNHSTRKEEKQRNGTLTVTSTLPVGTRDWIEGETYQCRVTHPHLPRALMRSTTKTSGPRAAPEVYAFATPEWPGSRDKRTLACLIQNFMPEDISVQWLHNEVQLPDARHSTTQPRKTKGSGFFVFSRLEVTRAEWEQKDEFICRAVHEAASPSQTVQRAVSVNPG

The test concerns the target IgE-Tb / FcεRIα-Y131A-AF488 (Homo sapiens, UniProt P01854). In words: IgE-Tb / FcεRIα-Y131A-AF488 FRET assay (protocol for examples 1 to 233). Particulars: examples 1 to 233: 5 nM IgE-Tb, 25 nM FcεRIα-Y131A-AF488, incubated 2 hours at room temperature; read-out: Y131A FRET IC50 range. The class given is binding. The protocol: For examples 1 to 233, the assay was conducted according to the following: Each assay reaction was conducted in a volume of 25 μl in a 384-well half-volume plate. 10 point compound serial dilutions (3-fold) were generated in DMSO at a concentration of ×50 that of the final assay concentration (FAC). Compound solutions were then prepared by IgE-Tb diluting 10-fold in assay buffer. For the assay, 5 μl of diluted compound was added to 10 μl of, followed by addition of 10 μl FcεRIα-Y131A-AF488. FRET reagents FACs were 5 nM IgE-Tb, 25 nM FcεRIα-Y131A-AF488. Usually the top FAC of compound in the assay was 10 μM. The final DMSO concentration was 2%. The minimum signal (MIN) was measured by adding 5l unlabelled FcεRIα at 1 μM (FAC=200 nM) to the FRET reagents. The maximum FRET signal (MAX) was measured in wells containing FRET reagents but no compound. The assay was incubated for 2 hours at room temperature, protected from light and evaporation, and with gentle agitation.
Measurement of FRET for each well was carried out by exciting at 330 nm and measuring emission at 495/520 nm using an Envision plate reader (Perkin Elmer). FRET ratio was calculated as follows: Emission at 520/Emission at 495×1000.
The FRET ratio was used for the data analysis.
Z′ was calculated as follows (σ=standard deviation and μ=mean): 1−((3×σMAX)+(3×σMIN))/(μMAX−μMIN)
Z′ above 0.5 was considered a good assay.
Background signal (MIN) was subtracted from all wells. Using the background subtracted values, the percent inhibition by compound in each test-well was calculated as follows: 100−Test-well FRET ratio/MAX FRET ratio×100.
Percent inhibition was plotted against compound concentration. IC50 values for each compound were determined using four parameter logistic fit model using the XLFIT5 software package.
Usually IC50 stands for the concentration at which inhibition is half-maximal. `CS(=O)(=O)c1cccc(NC(=O)C2CCc3sc(NC(=O)C4CC4)c(S(=O)(=O)NCC4CC4)c3C2)c1` (centres unmarked) [Example 34, 2-(Cyclopropanecarbonylamino)-3-(cyclopropylmethylsulfamoyl)-N-(3-methylsulfonylphenyl)-4,5,6,7-tetrahydrobenzothiophene-5-carboxamide]: the IC50 is less than 1000 nM.

For the molecule `O=C(Nc1cccc(-c2ccno2)c1)C1CCc2sc(NC(=O)C3CC3)c(S(=O)(=O)NCC3CC3)c2C1` (centres unmarked) [Example 35, 2-(Cyclopropanecarbonylamino)-3-(cyclopropylmethylsulfamoyl)-N-(3-isoxazol-5-ylphenyl)-4,5,6,7-tetrahydrobenzothiophene-5-carboxamide], the IC50 is less than 1000 nM.

As for `CCOc1c(NC2CCc3sc(NC(=O)C4CC4)c(S(=O)(=O)NCC4CC4)c3C2)c(=O)c1=O` (centres unmarked) [Example 36, N-[3-(Cyclopropylmethylsulfamoyl)-5-[(2-ethoxy-3,4-dioxo-cyclobuten-1-yl)amino]-4,5,6,7-tetrahydrobenzothiophen-2-yl]cyclopropanecarboxamide], the IC50 was less than 1000 nM.

Consider `CCNc1c(NC2CCc3sc(NC(=O)C4CC4)c(S(=O)(=O)NCC4CC4)c3C2)c(=O)c1=O` (centres unmarked) [Example 37, N-[3-(Cyclopropylmethylsulfamoyl)-5-[[2-(ethylamino)-3,4-dioxo-cyclobuten-1-yl]amino]-4,5,6,7-tetrahydrobenzothiophen-2-yl]cyclopropanecarboxamide], for which the IC50 is less than 1000 nM.

For `CCCCS(=N)(=O)c1c(NC(=O)C2CC2)sc2c1CCCC2` (centres unmarked) [Example 38, N-[3-(Butylsulfonimidoyl)-4,5,6,7-tetrahydrobenzothiophen-2-yl]cyclopropanecarboxamide], the IC50 is 1000 to 10000 nM.

As to `CCOC(=O)C1CCc2sc(NC(=O)C3CC3)c(C(=O)NCC3CC3)c2C1` (centres unmarked) [Example 39, Ethyl 2-(cyclopropanecarbonylamino)-3-(cyclopropylmethylcarbamoyl)-4,5,6,7-tetrahydrobenzothiophene-5-carboxylate], the IC50 was 1000 to 10000 nM.

As to `O=C(NCC1CC1)c1c(NC(=O)C2CC2)sc2c1CC(C(=O)O)CC2` (centres unmarked) [Example 40, 2-(Cyclopropanecarbonylamino)-3-(cyclopropylmethylcarbamoyl)-4,5,6,7-tetrahydrobenzothiophene-5-carboxylic acid], the IC50 lay in the range of 10000 to 50000 nM.

Turning to `O=C1NCc2cc(NC(=O)C3CCc4sc(NC(=O)C5CC5)c(C(=O)NCC5CC5)c4C3)ccc21` (centres unmarked) [Example 41, 2-(Cyclopropanecarbonylamino)-N3-(cyclopropylmethyl)-N5-(1-oxoisoindolin-5-yl)-4,5,6,7-tetrahydrobenzothiophene-3,5-dicarboxamide], the IC50 is less than 1000 nM.

Consider `O=C1CC(c2cccc(NC(=O)C3CCc4sc(NC(=O)C5CC5)c(C(=O)NCC5CC5)c4C3)c2)CN1` (centres unmarked) [Example 42, 2-(Cyclopropanecarbonylamino)-N3-(cyclopropylmethyl)-N5-[3-(5-oxopyrrolidin-3-yl)phenyl]-4,5,6,7-tetrahydrobenzothiophene-3,5-dicarboxamide], for which the IC50 is less than 1000 nM.

As to `CC1=NN(c2cccc(NC(=O)C3CCc4sc(NC(=O)C5CC5)c(C(=O)NCC5CC5)c4C3)c2)C(=O)C1` (centres unmarked) [Example 43, 2-(Cyclopropanecarbonylamino)-N3-(cyclopropylmethyl)-N5-[3-(3-methyl-5-oxo-4H-pyrazol-1-yl)phenyl]-4,5,6,7-tetrahydrobenzothiophene-3,5-dicarboxamide], the IC50 was less than 1000 nM.

`O=C(NCC1CC1)c1c(NC(=O)C2CC2)sc2c1CC(C(=O)Nc1cccc3[nH]ncc13)CC2` (centres unmarked) [Example 44, 2-(Cyclopropanecarbonylamino)-N3-(cyclopropylmethyl)-N5-(1H-indazol-4-yl)-4,5,6,7-tetrahydrobenzothiophene-3,5-dicarboxamide; 2,2,2-trifluoroacetic acid]: the IC50 is less than 1000 nM.

Regarding `O=C(NCC1CC1)c1c(NC(=O)C2CC2)sc2c1CC(C(=O)Nc1ccc3[nH]ncc3c1)CC2` (centres unmarked) [Example 45, 2-(Cyclopropanecarbonylamino)-N3-(cyclopropylmethyl)-N5-(1H-indazol-5-yl)-4,5,6,7-tetrahydrobenzothiophene-3,5-dicarboxamide; 2,2,2-trifluoroacetic acid], the IC50 was less than 1000 nM.

Regarding `O=C(NCC1CC1)c1c(NC(=O)C2CC2)sc2c1CC(c1nc3nccnc3[nH]1)CC2` (centres unmarked) [Example 46, 2-(Cyclopropanecarbonylamino)-N-(cyclopropylmethyl)-5-(1H-imidazo[4,5-b]pyrazin-2-yl)-4,5,6,7-tetrahydrobenzothiophene-3-carboxamide], the concentration for half-maximal inhibition (IC50) was less than 1000 nM.

For the molecule `O=C(NCC1CC1)c1c(NC(=O)C2CC2)sc2c1CC(C(=O)NC1Cc3ccccc3C1)CC2` (centres unmarked) [Example 47, 2-(Cyclopropanecarbonylamino)-N3-(cyclopropylmethyl)-N5-indan-2-yl-4,5,6,7-tetrahydrobenzothiophene-3,5-dicarboxamide], the IC50 is less than 1000 nM.

With `COc1ccc(CCNC(=O)C2CCc3sc(NC(=O)C4CC4)c(C(=O)NCC4CC4)c3C2)cc1` (centres unmarked) [Example 48, 2-(Cyclopropanecarbonylamino)-N3-(cyclopropylmethyl)-N5-[2-(4-methoxyphenyl)ethyl]-4,5,6,7-tetrahydrobenzothiophene-3,5-dicarboxamide], the half-inhibitory concentration (IC50) was less than 1000 nM.

On to `O=C(NCC1CC1)c1c(NC(=O)C2CC2)sc2c1CC(C(=O)Nc1ccc3nccnc3c1)CC2` (centres unmarked) [Example 49, 2-(Cyclopropanecarbonylamino)-N3-(cyclopropylmethyl)-N5-quinoxalin-6-yl-4,5,6,7-tetrahydrobenzothiophene-3,5-dicarboxamide], for which the IC50 is less than 1000 nM.

For `O=C(NCC1CC1)c1c(NC(=O)C2CC2)sc2c1CC(C(=O)Nc1nccs1)CC2` (centres unmarked) [Example 50, 2-(Cyclopropanecarbonylamino)-N3-(cyclopropylmethyl)-N5-thiazol-2-yl-4,5,6,7-tetrahydrobenzothiophene-3,5-dicarboxamide], the IC50 is less than 1000 nM.

For `O=C(NCC1CC1)c1c(NC(=O)C2CC2)sc2c1CC(C(=O)Nc1nnn[nH]1)CC2` (centres unmarked) [Example 51, 2-(Cyclopropanecarbonylamino)-N3-(cyclopropylmethyl)-N5-(1H-tetrazol-5-yl)-4,5,6,7-tetrahydrobenzothiophene-3,5-dicarboxamide], the IC50 was less than 1000 nM.

For the molecule `O=C(NCC1CC1)c1c(NC(=O)C2CC2)sc2c1CC(C(=O)Nc1ccncc1)CC2` (centres unmarked) [Example 52, 2-(Cyclopropanecarbonylamino)-N3-(cyclopropylmethyl)-N5-(4-pyridyl)-4,5,6,7-tetrahydrobenzothiophene-3,5-dicarboxamide], the IC50 is less than 1000 nM.

For `O=C(NCC1CC1)c1c(NC(=O)C2CC2)sc2c1CC(C(=O)Nc1cnccn1)CC2` (centres unmarked) [Example 53, 2-(Cyclopropanecarbonylamino)-N3-(cyclopropylmethyl)-N5-pyrazin-2-yl-4,5,6,7-tetrahydrobenzothiophene-3,5-dicarboxamide], the IC50 is less than 1000 nM.

As to `O=C(NCC1CC1)c1c(NC(=O)C2CC2)sc2c1CC(C(=O)Nc1cccnc1)CC2` (centres unmarked) [Example 54, 2-(Cyclopropanecarbonylamino)-N3-(cyclopropylmethyl)-N5-(3-pyridyl)-4,5,6,7-tetrahydrobenzothiophene-3,5-dicarboxamide], the IC50 is less than 1000 nM.

Regarding `O=C(NCC1CC1)c1c(NC(=O)C2CC2)sc2c1CC(C(=O)N1CC(O)C1)CC2` (centres unmarked) [Example 55, 2-(Cyclopropanecarbonylamino)-N-(cyclopropylmethyl)-5-(3-hydroxyazetidine-1-carbonyl)-4,5,6,7-tetrahydrobenzothiophene-3-carboxamide], the IC50 fell in the range of 10000 to 50000 nM.

On to `O=C(NCC1CC1)c1c(NC(=O)C2CC2)sc2c1CC(C(=O)N1CCS(=O)(=O)CC1)CC2` (centres unmarked) [Example 56, 2-(Cyclopropanecarbonylamino)-N-(cyclopropylmethyl)-5-(1,1-dioxo-1,4-thiazinane-4-carbonyl)-4,5,6,7-tetrahydrobenzothiophene-3-carboxamide], for which the IC50 was 10000 to 50000 nM.

Take `O=C(NCC1CC1)c1c(NC(=O)C2CC2)sc2c1CC(C(=O)NCCc1ccc(O)cc1)CC2` (centres unmarked) [Example 57, 2-(Cyclopropanecarbonylamino)-N3-(cyclopropylmethyl)-N5-[2-(4-hydroxyphenyl)ethyl]-4,5,6,7-tetrahydrobenzothiophene-3,5-dicarboxamide]: the IC50 is less than 1000 nM.

On to `O=C(NCC1CC1)c1c(NC(=O)C2CC2)sc2c1CC(C=NO)CC2` (centres unmarked) [Example 58, 2-(cyclopropanecarbonylamino)-N-(cyclopropylmethyl)-5-(hydroxyiminomethyl)-4,5,6,7-tetrahydrobenzothiophene-3-carboxamide], for which the IC50 was in the range of 1000 to 10000 nM.

As for `CCn1cnnc1NCC1CCc2sc(NC(=O)C3CC3)c(C(=O)NCC3CC3)c2C1` (centres unmarked) [Example 59, 2-(Cyclopropanecarbonylamino)-N-(cyclopropylmethyl)-5-[[(4-ethyl-1,2,4-triazol-3-yl)amino]methyl]-4,5,6,7-tetrahydrobenzothiophene-3-carboxamide], the IC50 is less than 1000 nM.
